Laboratory results reported in PubChem BioAssay (NCI).
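Results reflect a 48-hour exposure of cells in 96-well plates to compound at five concentrations. At the GI50, growth is halved. At the TGI there is no net growth.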

Experiments:
Assay in all cases: growth of human tumour cells (NCI), 48 h
RXF 393 renal = tested on: RXF 393 renal
NCI/ADR-RES ovarian = tested on: NCI/ADR-RES ovarian
SN12C renal = tested on: SN12C renal
HT29 colon = tested on: HT29 colon
CAKI-1 renal = tested on: CAKI-1 renal
T-47D breast = tested on: T-47D breast
BT-549 breast = tested on: BT-549 breast
MOLT-4 leukemia = tested on: MOLT-4 leukemia
SK-MEL-5 melanoma = tested on: SK-MEL-5 melanoma
SW-620 colon = tested on: SW-620 colon

Row | Structure (SMILES) | GI50 (RXF 393 renal) [µM] | TGI (RXF 393 renal) [µM] | GI50 (NCI/ADR-RES ovarian) [µM] | TGI (NCI/ADR-RES ovarian) [µM] | GI50 (SN12C renal) [µM] | TGI (SN12C renal) [µM] | GI50 (HT29 colon) [µM] | TGI (HT29 colon) [µM] | GI50 (CAKI-1 renal) [µM] | TGI (CAKI-1 renal) [µM] | GI50 (T-47D breast) [µM] | TGI (T-47D breast) [µM] | GI50 (BT-549 breast) [µM] | TGI (BT-549 breast) [µM] | GI50 (MOLT-4 leukemia) [µM] | TGI (MOLT-4 leukemia) [µM] | GI50 (SK-MEL-5 melanoma) [µM] | TGI (SK-MEL-5 melanoma) [µM] | GI50 (SW-620 colon) [µM] | TGI (SW-620 colon) [µM]
1 | Cc1cc(O)ccc1C1(c2ccc(O)cc2C)OC(=O)c2ccccc21 | 18.5 | 33.9 | 21.1 | 49.6 | 19.5 | 39.9 | 19.9 | 35.5 | 16 | 30.1 | 20.2 | 41.3 | 17.1 | 36.4 | 23.8 | 58.9 | 18 | 32.1 | 16.9 | 35.8
2 | Cc1ccc(C2=NN(c3ccc(S(=O)(=O)NC(=O)NCc4ccccc4)cc3)C(c3ccc(N(C)C)cc3)C2)c(C)c1 (stereo not given) | 3 | 9.8 | 3.93 | 25.1 | 3.35 | 61.5 | 4.53 | 19.1 | 3.45 | 87.1 | 6.74 | > 100 | 3.94 | 19.9 | 3.65 | 73.8 | 2.32 | 5.62 | 3.94 | 23.7
3 | CC(C)[C@@]12C[C@@H](OC(=O)COC(=O)c3ccccc3)[C@@](C)(O1)[C@@H]1CC[C@@H](C)[C@H]1[C@@H]2OC(=O)/C=C/c1ccccc1 | 0.284 | > 8.44 | 0.47 | > 100 | 7.35 | > 100 | > 100 | > 100 | 0.0812 | 2.87 | > 34.6 | > 100 | 0.304 | > 100 | > 100 | > 100 | > 100 | > 100 | > 100 | > 100
4 | CCc1ccc(Oc2c(-c3ccc(OCCc4cccc(C(F)(F)F)c4)cc3O)n[nH]c2C(F)(F)F)cc1 | 4.94 | 11.4 | 5.19 | 11.9 | 2.4 | 8.35 | 8.13 | 14.9 | 6.79 | 13.3 | 1.43 | 4.95 | 6.17 | 12.5 | 1.84 | 7.05 | 5.13 | 11 | 1.96 | 7.57
5 | CC(C)c1cnc(-c2cc(Cl)ccc2F)cc1Nc1ccncc1C(=O)NC(CO)CO | 10.3 | 27 | 20.8 | 63.2 | 8.13 | 23.7 | 14.6 | 33.7 | 6.28 | 68.7 | 4.5 | 34.8 | 14.8 | 31.9 | 11.7 | 39.3 | 14.2 | 27.5 | 19.6 | 39.5
6 | Cn1c2c(c3ccccc31)CCN1C[C@@H]3CCCC[C@H]3C[C@@H]21 | 0.964 | 7.47 | 0.928 | 9.7 | 3.82 | > 100 | 2.61 | 8.06 | 2.92 | > 29.5 | 14.1 | > 100 | 3.04 | 9.19 | 5.55 | > 100 | 1.42 | 4.07 | 3.43 | > 100
7 | CCOC(=O)c1c(C)n([O-])c2cc(F)c(F)cc2[n+]1=O | 1.8 | 5.76 | 0.432 | 1.98 | 1.01 | 2.18 | 0.516 | 3.19 | 1.63 | 3.04 | 1.87 | 3.69 | 1.84 | 3.64 | 0.541 | 6.62 | 2.31 | 5.45 | 0.428 | 1.57
8 | CSC1=CC(=O)c2ccccc2C1=O | 1.54 | 2.9 | 2.81 | 11.7 | 5.31 | 19.4 | 26.3 | 65.2 | 1.59 | 3.11 | 0.41 | 2.1 | 11.6 | 23.8 | 1.64 | 4.86 | 5.74 | 19 | 2.49 | 8.13
